As a reminder, the half-life is the time in which the quantity being followed falls by half.

From ChEMBL document CHEMBL4433222, “Treatment of Alzheimer's by PROTAC-Tau Protein Degradation” (ACS Med Chem Lett, 2019) come the findings set out here.

Structures are written as SMILES.

This data set in a line: Half life in CD1 mouse brain at 30 mg/kg, ip by LC-MS/MS analysis. Type of data set: ADME, organism-based.

`O=C(CCc1ccc2c(c1)[nH]c1ccncc12)NCCOCCOCCNc1cccc2c1C(=O)N(C1CCC(=O)NC1=O)C2=O` (stereo unspecified) showed a half-life of 46 min.
